Results published in ChEMBL document CHEMBL1201862, “PubChem BioAssay data set” (2004).
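Values below derive from 48-hour exposures of cells grown in 96-well plates, with endpoints linearly interpolated between the two concentrations bracketing the appropriate inhibition level. Here, GI50 denotes the concentration required for 50% inhibition of growth.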 Activity calls are given as the source filed them. Cut-off read from the data, not from the text of the source: active = GI50 up to about 1.1 µM and inactive = higher.

Experiments:
Assay in all cases: DTP human tumour cell line panel, 48 h
[1] = tested on: SK-MEL-5
[2] = tested on: SK-MEL-2
[3] = tested on: SK-MEL-28
[4] = tested on: ACHN
[5] = tested on: HOP-92
[6] = tested on: 786-0
[7] = tested on: HL-60
[8] = tested on: SF-268
[9] = tested on: NCI-H23
[10] = tested on: HCC 2998
[11] = tested on: UO-31
[12] = tested on: COLO 205
[13] = tested on: SK-OV-3
[14] = tested on: SN12C
[15] = tested on: SF-295
[16] = tested on: M14
[17] = tested on: SR

Measured: GI50

Cc1nc(-n2nc(-c3ccccc3)cc2-c2ccccc2)sc1C(=O)/C=C/c1cccc([N+](=O)[O-])c1
inactive: [1] 12.7 µM | [2] 17.7 µM | [3] 17.1 µM | [4] 23.3 µM | [5] 22.9 µM | [6] 12.7 µM | [7] 12.2 µM | [8] 12.3 µM | [9] 17.2 µM | [10] 15.5 µM | [11] 11.6 µM | [12] 17 µM | [13] 46.3 µM | [14] 19.8 µM | [15] 20.1 µM

C/C(=N\NC(=O)CC(=O)Nc1ccc(C)cc1)c1cc2ccccc2oc1=O
inactive: [1] > 100 µM | [2] > 100 µM | [16] > 100 µM | [3] > 100 µM | [4] > 100 µM | [6] > 100 µM | [7] > 100 µM | [9] > 100 µM | [11] > 100 µM | [12] > 100 µM | [13] > 100 µM | [14] > 100 µM | [15] > 100 µM

CN(C(=O)c1cccs1)C(=S)N1CCN(c2ccccn2)CC1
inactive: [1] > 100 µM | [2] > 100 µM | [16] > 100 µM | [3] > 100 µM | [4] > 100 µM | [5] > 100 µM | [6] > 100 µM | [7] > 100 µM | [8] > 100 µM | [9] > 100 µM | [11] > 100 µM | [12] > 100 µM | [13] > 100 µM | [14] > 100 µM | [15] > 100 µM

CCOC(=O)C1COc2cc(-c3cc(=O)c4ccccc4o3)ccc2O1 (centres undefined)
inactive: [1] > 100 µM | [2] > 100 µM | [16] > 100 µM | [3] > 100 µM | [4] > 100 µM | [5] 10.4 µM | [6] > 100 µM | [8] > 100 µM | [9] > 100 µM | [10] > 100 µM | [11] 30.5 µM | [17] > 100 µM | [12] > 100 µM | [13] > 100 µM | [14] 29.5 µM | [15] > 100 µM

CC(C)(Oc1ccc(C(=O)c2ccc(Cl)cc2)cc1Cl)C(=O)Nc1c(Cl)cccc1Cl
inactive: [1] 20 µM | [2] > 100 µM | [16] > 100 µM | [3] > 100 µM | [5] > 100 µM | [6] > 100 µM | [7] 10.7 µM | [8] > 100 µM | [9] > 100 µM | [11] 23 µM | [17] 9.75 µM | [13] > 100 µM | [15] > 100 µM

CC(=O)c1ccc(N2C(=O)C3c4[nH]c5ccccc5c4C4CCC(C(C)(C)C)CC4C3C2=O)cc1 (centres undefined)
inactive: [1] 25.6 µM | [16] 23.9 µM | [3] 28.8 µM | [4] 28.3 µM | [5] 20.8 µM | [6] 18.6 µM | [7] 27.1 µM | [8] 17.3 µM | [9] 19.2 µM | [10] 20.7 µM | [11] 43.5 µM | [17] 26.7 µM | [12] 15.2 µM | [13] 48.6 µM | [14] 18.5 µM | [15] 28.7 µM

O=C1CCCCCCCCCCC(=O)N2CCOCCOCCN1Cc1cccc(n1)C2
inactive: [1] 61.5 µM | [2] > 100 µM | [16] > 100 µM | [3] > 100 µM | [4] > 100 µM | [6] > 100 µM | [8] > 100 µM | [9] > 100 µM | [10] > 100 µM | [11] > 100 µM | [12] > 100 µM | [13] > 100 µM | [14] > 100 µM | [15] 65.5 µM

O=C(/C=C/c1ccco1)N1CCN(Cc2ccccc2)CC1
inactive: [1] > 100 µM | [16] > 100 µM | [3] > 100 µM | [4] > 100 µM | [5] > 100 µM | [6] > 100 µM | [7] > 100 µM | [8] > 100 µM | [9] > 100 µM | [10] > 100 µM | [11] 96.8 µM | [17] > 100 µM | [13] > 100 µM | [14] > 100 µM | [15] > 100 µM

O=C(COc1ccc(Br)cc1Br)N1N=C(c2ccc([N+](=O)[O-])o2)CC1(O)c1ccccc1 (centres undefined)
inactive: [1] 5.45 µM | [2] 12.5 µM | [16] 10.1 µM | [3] 12.6 µM | [4] 15.3 µM | [6] 15.6 µM | [7] 3.12 µM | [8] 12.3 µM | [9] 12.4 µM | [10] 10.6 µM | [11] 5.36 µM | [17] 2.12 µM | [12] 2.7 µM | [13] 24.1 µM | [14] 12.2 µM | [15] 18.7 µM

Cn1c2c(c3ccccc31)C1CCCCCCC1C1C(=O)OC(=O)C21 (centres undefined)
inactive: [1] 35.2 µM | [16] 88.1 µM | [3] 54.1 µM | [4] 56 µM | [6] > 100 µM | [7] 30.8 µM | [8] 45.2 µM | [9] 69.7 µM | [10] 22.4 µM | [11] > 100 µM | [17] 29 µM | [12] 40.6 µM | [13] 32.7 µM | [14] 39.5 µM | [15] 35.2 µM

CN(C)c1ccc(/C=C/c2ccc(/C=C/c3ccc(N(C)C)cc3)cc2)cc1
inactive: [1] 35.1 µM | [2] > 100 µM | [16] > 100 µM | [3] > 100 µM | [4] 57.8 µM | [5] 92.5 µM | [6] > 100 µM | [7] > 100 µM | [8] > 100 µM | [9] 94.6 µM | [10] > 100 µM | [11] 41.2 µM | [12] > 100 µM | [13] > 100 µM | [14] > 100 µM | [15] 89.1 µM

OC12c3ccccc3C3CCC4(OCCO4)C3C1c1ccccc12 (centres undefined)
inactive: [1] > 100 µM | [2] > 100 µM | [16] > 100 µM | [3] > 100 µM | [4] > 100 µM | [6] > 100 µM | [7] > 100 µM | [8] > 100 µM | [9] > 100 µM | [10] > 100 µM | [11] > 100 µM | [12] > 100 µM | [13] > 100 µM | [14] > 100 µM | [15] > 100 µM

CC1C[C@@]2(c3ccccc3)C(=O)CCC[C@H]2N1 (some centres undefined)
inactive: [1] > 100 µM | [2] > 100 µM | [16] > 100 µM | [3] > 100 µM | [4] > 100 µM | [5] 29.6 µM | [6] > 100 µM | [7] > 100 µM | [8] > 100 µM | [9] > 100 µM | [11] > 100 µM | [17] > 100 µM | [13] > 100 µM | [14] > 100 µM | [15] > 100 µM
